Here are results for eleven molecules from ChEMBL document CHEMBL4665706, “Synthesis of a Unique Psammaplysin F Library and Functional Evaluation in Prostate Cancer Cells by Multiparametric Quantitative Single Cell Imaging” (J Nat Prod, 2020).

Activity calls are given as the source filed them. No cut-off for these calls is given here.

The subject of experiment [1] is LNCaP. In words: Cell cycle arrest in human LNCaP cells assessed as accumulation of cells at M phase at 20 to 50 uM after 24 hrs by DAPI staining-based fluorescence assay. The experiment is classed as functional. Particulars: dose microM 20-50, time 24.0 hrs.
In experiment [2] the test system is LNCaP. In words: Cell cycle arrest in human LNCaP cells assessed as accumulation of cells at G2 phase at 20 to 50 uM after 24 hrs by DAPI staining-based fluorescence assay. It is filed as functional. Particulars: dose microM 20-50, time 24.0 hrs.
Experiment [3] has as its system LNCaP. In words: Reduction in mitochondrial membrane potential in human LNCaP cells assessed as mitochondrial morphological change at 50 uM after 24 hrs by Hoechst 33342/MTG staining-based by fluorescence assay. It is filed as functional, cell-based.
The subject of experiment [4] is LNCaP. The experiment in a line: Reduction in mitochondrial membrane potential in human LNCaP cells assessed as reduction in tubular structure at 20 to 50 uM after 24 hrs by Hoechst 33342/MTG staining-based by fluorescence assay. The experiment is classed as functional, cell-based. Particulars: dose microM 20-50, time 24.0 hrs.
Experiment [5] relates to LNCaP. In words: Cell cycle arrest in human LNCaP cells assessed as cell death at 20 to 50 uM after 24 hrs in presence of 6AA by DAPI staining-based fluorescence assay. The experiment is classed as functional. Conditions: dose microM 20-50, time 24.0 hrs.
Experiment [6] deals with LNCaP. In words: Cell cycle arrest in human LNCaP cells assessed as cell death at 20 to 50 uM after 24 hrs in presence of VINB by DAPI staining-based fluorescence assay. It is filed as functional. Conditions: dose microM 20-50, time 24.0 hrs.

For the molecule `COC1=C(Br)C[C@@]2(OC=C1Br)ON=C(C(=O)NCCCOc1c(Br)cc(CCN(C)C(=O)NC3CCCC3)cc1Br)[C@H]2O`, the result in the experiment with LNCaP [1] and in the experiment on LNCaP [2] was Active.
With `CNCCc1cc(Br)c(OCCCNC(=O)C2=NO[C@]3(CC(Br)=C(OC)C(Br)=CO3)[C@@H]2O)c(Br)c1`, the result in the experiment with LNCaP [3], with LNCaP [4], with LNCaP [1] and with LNCaP [2] was Active.
With `C=CCNC(=O)N(C)CCc1cc(Br)c(OCCCNC(=O)C2=NO[C@]3(CC(Br)=C(OC)C(Br)=CO3)[C@@H]2O)c(Br)c1`, the result in the experiment on LNCaP [4], with LNCaP [1] and with LNCaP [2] was Active.
As to `COC1=C(Br)C[C@@]2(OC=C1Br)ON=C(C(=O)NCCCOc1c(Br)cc(CCN(C)C(=O)C(C)(C)C)cc1Br)[C@H]2OC(=O)C(C)(C)C`, the outcome with LNCaP [4], in the experiment with LNCaP [1] and with LNCaP [2] was Active.
In the case of `COC1=C(Br)C[C@@]2(OC=C1Br)ON=C(C(=O)NCCCOc1c(Br)cc(CCN(C)C(=O)NCc3ccc(OC)cc3)cc1Br)[C@H]2O`, the result in the experiment with LNCaP [1] and with LNCaP [2] was inactive.
With `COC1=C(Br)C[C@@]2(OC=C1Br)ON=C(C(=O)NCCCOc1c(Br)cc(CCN(C)C(=O)Nc3ccccc3)cc1Br)[C@H]2OC(=O)c1ccccc1`, the outcome in the experiment with LNCaP [1] and in the experiment on LNCaP [2] was inactive.
Consider `CCCCNC(=O)N(C)CCc1cc(Br)c(OCCCNC(=O)C2=NO[C@]3(CC(Br)=C(OC)C(Br)=CO3)[C@@H]2O)c(Br)c1`, for which the outcome in the experiment on LNCaP [4], with LNCaP [1], in the experiment with LNCaP [5], in the experiment on LNCaP [6] and in the experiment with LNCaP [2] was Active.
Regarding `COC1=C(Br)C[C@@]2(OC=C1Br)ON=C(C(=O)NCCCOc1c(Br)cc(CCN(C)C(=O)Nc3ccc(C(C)=O)cc3)cc1Br)[C@H]2O`, the result in the experiment with LNCaP [1] and in the experiment with LNCaP [2] was Active.
For the molecule `COC1=C(Br)C[C@@]2(OC=C1Br)ON=C(C(=O)NCCCOc1c(Br)cc(CCN(C)C(=O)Nc3cccc(OC)c3OC)cc1Br)[C@H]2O`, the outcome in the experiment with LNCaP [1] and in the experiment on LNCaP [2] was inactive.
As for `COC1=C(Br)C[C@@]2(OC=C1Br)ON=C(C(=O)NCCCOc1c(Br)cc(CCN(C)C(=O)C(C)(C)C)cc1Br)[C@H]2O`, the result with LNCaP [4], in the experiment with LNCaP [1], in the experiment on LNCaP [5], in the experiment with LNCaP [6] and in the experiment with LNCaP [2] was Active.
As to `COC1=C(Br)C[C@@]2(OC=C1Br)ON=C(C(=O)NCCCOc1c(Br)cc(CCN(C)C(=O)NCCc3ccc(F)cc3)cc1Br)[C@H]2O`, the result with LNCaP [1] and in the experiment with LNCaP [2] was Active.
